Measurements published in patent US12054494B2, “Compound with anticancer activity” (KYOWA KIRIN CO., LTD., priority 2018, dated 2024).

tested on: SU-DHL-4 cells; assay: Inhibitory effect on cell viability (Cell Counting Kit-8); format: cell-based; details: Homo sapiens, 72 hours culture with test compound, concentration showing 90% inhibition rate of cell viability
Procedure, shortened: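 SU-DHL-4 cells (2000/well, RPMI1640 with 10% FBS) precultured 18-25 h, then exposed to a 9-step compound dilution series (0.1% DMSO final) for 72 h at 37° C. Viability by CCK-8 absorbance at 450 nm after 2-3 h; IC90 computed from inhibition rate relative to untreated and cell-free wells.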

IC90 | SMILES
9.16 nM | CCC(=O)N1c2ccc(F)cc2[C@H](Nc2ccc(C(=O)NCCNC(=O)c3ccc(N[C@@H]4C[C@H](C)N(C(=O)CC)c5ccc(F)cc54)cc3)cc2)C[C@@H]1C [Compound 10r, N,N′-(Ethane-1,2-diyl)bis(4-(((2S,4R)-6-fluoro-2-methyl-1-propionyl-1,2,3,4-tetrahydroquinolin-4-yl)amino)benzamide)]
1.01 nM | CCC(=O)N1c2ccccc2[C@H](Nc2ccc(-c3nnc(CNC(=O)C4CCN(Cc5cc(O)cc(-c6c(C)noc6C)c5)CC4)o3)cc2)C[C@@H]1C [Compound 12a, 1-(3-(3,5-Dimethylisoxazol-4-yl)-5-hydroxybenzyl)-N-((5-(4-(((2S,4R)-2-methyl-1-propionyl-1,2,3,4-tetrahydroquinolin-4-yl)amino)phenyl)-1,3,4-oxadiazol-2-yl)methyl)piperidine-4-carboxamide]
4.35 nM | CCC(=O)N1c2ccccc2[C@H](Nc2ccc(NC(=O)C3CN(C(=O)C4CCN(Cc5cc(O)cc(-c6c(C)noc6C)c5)CC4)C3)cc2)C[C@@H]1C [Compound 12b, 1-(1-(3-(3,5-Dimethylisoxazol-4-yl)-5-hydroxybenzyl)piperidine-4-carbonyl)-N-(4-(((2S,4R)-2-methyl-1-propionyl-1,2,3,4-tetrahydroquinolin-4-yl)amino)phenyl)azetidine-3-carboxamide]
0.49 nM | CCC(=O)N1c2ccccc2[C@H](Nc2ccc(SCCNC(=O)c3ccc(C4=N[C@@H](CC(=O)OCCN(C)C)c5nnc(C)n5-c5sc(C)c(C)c54)cc3)cc2)C[C@@H]1C [Compound 13a, 2-(Dimethylamino)ethyl 2-((S)-2,3,9-trimethyl-4-(4-((2-((4-(((2S,4R)-2-methyl-1-propionyl-1,2,3,4-tetrahydroquinolin-4-yl)amino)phenyl)thio)ethyl)carbamoyl)phenyl)-6H-thieno[3,2-f][1,2,4]triazolo[4,3-a][1,4]diazepin-6-yl)acetate]
0.04 nM | CCC(=O)N1c2ccccc2[C@H](Nc2ccc(-c3cnn(CC(=O)Nc4ccc(C5=NCc6nnc(C)n6-c6sc(C)c(C)c65)cc4)c3)cc2)C[C@@H]1C [Compound 14a, 2-(4-(4-(((2S,4R)-2-Methyl-1-propionyl-1,2,3,4-tetrahydroquinolin-4-yl)amino)phenyl)-1H-pyrazol-1-yl)-N-(4-(2,3,9-trimethyl-6H-thieno[3,2-f][1,2,4]triazolo[4,3-a][1,4]diazepin-4-yl)phenyl)acetamide]
0.12 nM | CCC(=O)N1c2ccccc2[C@H](Nc2ccc(-c3cnn(CCNC(=O)c4ccc(C5=NCc6nnc(C)n6-c6sc(C)c(C)c65)cc4)c3)cc2)C[C@@H]1C [Compound 14b, N-(2-(4-(4-(((2S,4R)-2-Methyl-1-propionyl-1,2,3,4-tetrahydroquinolin-4-yl)amino)phenyl)-1H-pyrazol-1-yl)ethyl)-4-(2,3,9-trimethyl-6H-thieno[3,2-f][1,2,4]triazolo[4,3-a][1,4]diazepin-4-yl)benzamide]
0.16 nM | CCC(=O)N1c2ccccc2[C@H](Nc2ccc(NC(=O)COCC(=O)Nc3ccc(C4=NCc5nnc(C)n5-c5sc(C)c(C)c54)cc3)cc2)C[C@@H]1C [Compound 14d, N-(4-(((2S,4R)-2-Methyl-1-propionyl-1,2,3,4-tetrahydroquinolin-4-yl)amino)phenyl)-2-(2-oxo-2-((4-(2,3,9-trimethyl-6H-thieno[3,2-f][1,2,4]triazolo[4,3-a][1,4]diazepin-4-yl)phenyl)amino)ethoxy)acetamide]
0.26 nM | Cc1sc2c(c1C)C(c1ccc(NC(=O)C#CCNC(=O)c3ccc(C4=NCc5nnc(C)n5-c5sc(C)c(C)c54)cc3)cc1)=NCc1nnc(C)n1-2 [Compound 14e, N-(4-Oxo-4-((4-(2,3,9-trimethyl-6H-thieno[3,2-f][1,2,4]triazolo[4,3-a][1,4]diazepin-4-yl)phenyl)amino)but-2-yn-1-yl)-4-(2,3,9-trimethyl-6H-thieno[3,2-f][1,2,4]triazolo[4,3-a][1,4]diazepin-4-yl)benzamide]
0.31 nM | CCC(=O)N1c2ccccc2[C@H](Nc2ccc(NC(=O)CNC(=O)Nc3ccc(C4=NCc5nnc(C)n5-c5sc(C)c(C)c54)cc3)cc2)C[C@@H]1C [Compound 14f, N-(4-(((2S,4R)-2-Methyl-1-propionyl-1,2,3,4-tetrahydroquinolin-4-yl)amino)phenyl)-2-(3-(4-(2,3,9-trimethyl-6H-thieno[3,2-f][1,2,4]triazolo[4,3-a][1,4]diazepin-4-yl)phenyl)ureido)acetamide]
0.03 nM | CCC(=O)N1c2ccccc2[C@H](Nc2ccc(C(=O)NCC#CC(=O)Nc3ccc(C4=NCc5nnc(C)n5-c5sc(C)c(C)c54)cc3)cc2)C[C@@H]1C [Compound 14g, 4-(((2S,4R)-2-Methyl-1-propionyl-1,2,3,4-tetrahydroquinolin-4-yl)amino)-N-(4-oxo-4-((4-(2,3,9-trimethyl-6H-thieno[3,2-f][1,2,4]triazolo[4,3-a][1,4]diazepin-4-yl)phenyl)amino)but-2-yn-1-yl)benzamide]
0.34 nM | CCC(=O)N1c2ccccc2[C@H](Nc2ccc(NC(=O)NCC(=O)Nc3ccc(C4=NCc5nnc(C)n5-c5sc(C)c(C)c54)cc3)cc2)C[C@@H]1C [Compound 14h, 2-(3-(4-(((2S,4R)-2-Methyl-1-propionyl-1,2,3,4-tetrahydroquinolin-4-yl)amino)phenyl)ureido)-N-(4-(2,3,9-trimethyl-6H-thieno[3,2-f][1,2,4]triazolo[4,3-a][1,4]diazepin-4-yl)phenyl)acetamide]
0.03 nM | CCC(=O)N1c2ccccc2[C@H](Nc2ccc(NC(=O)C#CCNC(=O)c3ccc(C4=NCc5nnc(C)n5-c5sc(C)c(C)c54)cc3)cc2)C[C@@H]1C [Compound 14i, N-(4-((4-(((2S,4R)-2-Methyl-1-propionyl-1,2,3,4-tetrahydroquinolin-4-yl)amino)phenyl)amino)-4-oxobut-2-yn-1-yl)-4-(2,3,9-trimethyl-6H-thieno[3,2-f][1,2,4]triazolo[4,3-a][1,4]diazepin-4-yl)benzamide]
0.74 nM | CCC(=O)N1c2ccccc2[C@H](Nc2ccc(C(=O)NCc3ccc(-c4ccc(C5=NCc6nnc(C)n6-c6sc(C)c(C)c65)cc4)s3)cc2)C[C@@H]1C [Compound 14j, 4-(((2S,4R)-2-Methyl-1-propionyl-1,2,3,4-tetrahydroquinolin-4-yl)amino)-N-((5-(4-(2,3,9-trimethyl-6H-thieno[3,2-f][1,2,4]triazolo[4,3-a][1,4]diazepin-4-yl)phenyl)thiophen-2-yl)methyl)benzamide]
1.8 nM | CCC(=O)N1c2ccccc2[C@H](Nc2ccc(C(=O)NC3CN(C(=O)c4ccc(C5=NCc6nnc(C)n6-c6sc(C)c(C)c65)cc4)C3)cc2)C[C@@H]1C [Compound 14k, 4-(((2S,4R)-2-Methyl-1-propionyl-1,2,3,4-tetrahydroquinolin-4-yl)amino)-N-(1-(4-(2,3,9-trimethyl-6H-thieno[3,2-f][1,2,4]triazolo[4,3-a][1,4]diazepin-4-yl)benzoyl)azetidin-3-yl)benzamide]
1.45 nM | CCC(=O)N1c2ccccc2[C@H](Nc2ccc(C(=O)NCCC(=O)Nc3ccc(C4=NCc5nnc(C)n5-c5sc(C)c(C)c54)cc3)cc2)C[C@@H]1C [Compound 14m, 4-(((2S,4R)-2-Methyl-1-propionyl-1,2,3,4-tetrahydroquinolin-4-yl)amino)-N-(3-oxo-3-((4-(2,3,9-trimethyl-6H-thieno[3,2-f][1,2,4]triazolo[4,3-a][1,4]diazepin-4-yl)phenyl)amino)propyl)benzamide]
